Columns and labels:
MET = MET (Homo sapiens, UniProt P08581); experiment: Evaluation of inhibitory activity to MET; format: biochemical
Source text: (§1) Experimental Example 1. Evaluation of Inhibitory Activity to RON and MET

RON = RON (Homo sapiens, UniProt Q04912); experiment: Evaluation of inhibitory activity to RON; format: biochemical
Source text: as §1

Chain of RON (Q04912 25-1400): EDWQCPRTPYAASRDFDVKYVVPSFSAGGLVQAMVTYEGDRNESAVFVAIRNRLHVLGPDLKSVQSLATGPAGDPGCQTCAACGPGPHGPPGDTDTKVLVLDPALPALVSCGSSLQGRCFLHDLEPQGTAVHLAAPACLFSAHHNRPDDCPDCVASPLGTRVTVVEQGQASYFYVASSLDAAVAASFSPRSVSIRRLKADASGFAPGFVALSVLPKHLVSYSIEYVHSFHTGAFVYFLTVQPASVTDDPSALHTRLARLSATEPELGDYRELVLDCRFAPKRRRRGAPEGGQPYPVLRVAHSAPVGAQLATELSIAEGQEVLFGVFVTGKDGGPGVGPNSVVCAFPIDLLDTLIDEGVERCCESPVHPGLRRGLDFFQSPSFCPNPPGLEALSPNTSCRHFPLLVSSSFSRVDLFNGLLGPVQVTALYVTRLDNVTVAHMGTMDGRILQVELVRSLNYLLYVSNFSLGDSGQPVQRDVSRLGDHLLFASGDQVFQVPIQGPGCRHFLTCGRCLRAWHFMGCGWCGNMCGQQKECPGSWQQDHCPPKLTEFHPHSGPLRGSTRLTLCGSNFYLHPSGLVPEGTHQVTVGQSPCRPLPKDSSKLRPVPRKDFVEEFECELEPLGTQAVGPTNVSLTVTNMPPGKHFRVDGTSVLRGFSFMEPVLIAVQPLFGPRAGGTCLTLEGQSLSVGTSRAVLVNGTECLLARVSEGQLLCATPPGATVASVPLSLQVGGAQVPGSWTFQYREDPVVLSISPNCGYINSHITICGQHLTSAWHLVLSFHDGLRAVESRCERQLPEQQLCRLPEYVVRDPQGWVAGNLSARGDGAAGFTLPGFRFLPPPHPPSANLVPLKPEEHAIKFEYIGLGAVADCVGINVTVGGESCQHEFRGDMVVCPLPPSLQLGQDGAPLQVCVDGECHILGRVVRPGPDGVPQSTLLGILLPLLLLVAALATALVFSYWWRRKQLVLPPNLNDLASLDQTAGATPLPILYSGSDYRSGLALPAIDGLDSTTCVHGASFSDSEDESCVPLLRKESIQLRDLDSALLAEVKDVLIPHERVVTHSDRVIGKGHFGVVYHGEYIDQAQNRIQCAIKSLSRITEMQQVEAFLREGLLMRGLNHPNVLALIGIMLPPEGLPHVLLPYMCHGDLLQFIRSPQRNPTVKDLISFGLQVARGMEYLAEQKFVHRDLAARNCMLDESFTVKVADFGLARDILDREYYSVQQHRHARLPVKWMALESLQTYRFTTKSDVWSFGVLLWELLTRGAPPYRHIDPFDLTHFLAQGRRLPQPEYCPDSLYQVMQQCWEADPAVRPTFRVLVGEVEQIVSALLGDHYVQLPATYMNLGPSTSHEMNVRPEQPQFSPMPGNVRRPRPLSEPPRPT
Chain of MET (P08581 25-1390): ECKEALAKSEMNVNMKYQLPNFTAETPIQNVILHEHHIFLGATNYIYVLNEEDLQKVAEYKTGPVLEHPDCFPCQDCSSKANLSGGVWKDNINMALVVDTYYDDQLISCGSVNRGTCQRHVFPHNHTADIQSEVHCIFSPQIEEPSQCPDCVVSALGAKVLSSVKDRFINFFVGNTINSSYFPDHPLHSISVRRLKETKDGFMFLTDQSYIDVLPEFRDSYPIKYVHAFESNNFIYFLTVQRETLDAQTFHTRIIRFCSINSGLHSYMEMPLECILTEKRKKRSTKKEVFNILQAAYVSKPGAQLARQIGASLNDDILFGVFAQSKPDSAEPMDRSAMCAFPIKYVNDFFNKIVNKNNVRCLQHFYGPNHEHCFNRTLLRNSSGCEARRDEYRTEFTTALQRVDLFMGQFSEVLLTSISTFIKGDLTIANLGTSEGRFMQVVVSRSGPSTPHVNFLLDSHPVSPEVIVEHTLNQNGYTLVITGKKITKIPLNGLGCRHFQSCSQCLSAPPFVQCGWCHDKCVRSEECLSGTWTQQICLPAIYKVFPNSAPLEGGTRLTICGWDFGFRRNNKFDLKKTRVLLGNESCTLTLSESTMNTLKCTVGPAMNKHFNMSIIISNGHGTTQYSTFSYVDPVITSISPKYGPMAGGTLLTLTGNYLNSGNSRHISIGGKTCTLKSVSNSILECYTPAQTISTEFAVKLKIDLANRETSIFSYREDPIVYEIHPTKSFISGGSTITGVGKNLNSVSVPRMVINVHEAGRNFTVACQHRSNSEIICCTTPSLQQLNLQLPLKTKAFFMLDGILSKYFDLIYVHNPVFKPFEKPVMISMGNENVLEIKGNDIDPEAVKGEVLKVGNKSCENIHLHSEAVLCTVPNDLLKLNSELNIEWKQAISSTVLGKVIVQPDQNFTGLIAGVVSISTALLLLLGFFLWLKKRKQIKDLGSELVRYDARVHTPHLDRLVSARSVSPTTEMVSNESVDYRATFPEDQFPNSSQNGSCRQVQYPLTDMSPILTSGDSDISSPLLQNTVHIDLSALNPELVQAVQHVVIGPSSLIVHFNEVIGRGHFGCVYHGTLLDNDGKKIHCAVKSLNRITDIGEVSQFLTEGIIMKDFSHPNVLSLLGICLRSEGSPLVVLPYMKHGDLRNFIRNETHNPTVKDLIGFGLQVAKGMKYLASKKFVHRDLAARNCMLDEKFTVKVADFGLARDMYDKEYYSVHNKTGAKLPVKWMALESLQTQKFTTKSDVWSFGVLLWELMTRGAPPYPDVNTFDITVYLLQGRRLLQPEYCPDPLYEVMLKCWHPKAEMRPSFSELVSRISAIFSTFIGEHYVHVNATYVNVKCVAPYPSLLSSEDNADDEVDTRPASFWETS

Row | Structure (SMILES) | IC50 (MET) [µM] | IC50 (RON) [µM]
1 | Nc1nccc(-c2cc(Oc3ccc(NC(=O)c4cc(C5CC5)cn(-c5ccc(F)cc5)c4=O)cc3F)ccc2O)n1 [Example 48, N-(4-(3-(2-aminopyrimidin-4-yl)-4-hydroxyphenoxy)-3-fluorophenyl)-5-cyclopropyl-1-(4-fluorophenyl)-2-oxo-1,2-dihydropyridin-3-carboxamide] | 0.064 | 0.023
2 | Nc1nccc(-c2cc(Oc3ccc(NC(=O)c4ccc(C(F)(F)F)n(-c5ccc(F)cc5)c4=O)cc3F)ccc2O)n1 [Example 49, N-(4-(3-(2-aminopyrimidin-4-yl)-4-hydroxyphenoxy)-3-fluorophenyl)-1-(4-fluorophenyl)-2-oxo-6-(trifluoromethyl)-1,2-dihydropyridin-3-carboxamide] | 0.067 | 0.163
3 | Nc1nccc(-c2cc(Oc3ccc(NC(=O)c4ccc(CO)n(-c5ccc(F)cc5)c4=O)cc3F)ccc2O)n1 [Example 50, N-(4-(3-(2-aminopyrimidin-4-yl)-4-hydroxyphenoxy)-3-fluorophenyl)-1-(4-fluorophenyl)-6-(hydroxymethyl)-2-oxo-1,2-dihydropyridin-3-carboxamide] | 0.012 | 0.133
4 | Cc1c(C(=O)Nc2ccc(Oc3ccc(O)c(-c4ccnc(N)n4)c3)c(F)c2)c(=O)n(-c2ccccc2)n1CC(C)(C)O [Example 52, N-(4-(3-(2-aminopyrimidin-4-yl)-4-hydroxyphenoxy)-3-fluorophenyl)-1-(2-hydroxy-2-methylpropyl)-5-methyl-3-oxo-2-phenyl-2,3-dihydro-1H-pyrazol-4-carboxamide] | 0.115 | 0.876
5 | CCOc1ccn(-c2ccc(F)cc2)c(=O)c1C(=O)Nc1ccc(Oc2ccc(O)c(-c3ccncn3)c2)c(F)c1 [Example 54, 4-Ethoxy-N-(3-fluoro-4-(4-hydroxy-3-(pyrimidin-4-yl)phenoxy)phenyl)-1-(4-fluorophenyl)-2-oxo-1,2-dihydropyridin-3-carboxamide] | 0.067 | 0.351
6 | O=C(Nc1ccc(F)cc1)C1(C(=O)Nc2ccc(Oc3ccc(O)c(-c4ccncn4)c3)c(F)c2)CC1 [Example 56, N-(3-fluoro-4-(4-hydroxy-3-(pyrimidin-4-yl)phenoxy)phenyl)-N-(4-fluorophenyl)cyclopropan-1,1-dicarboxamide] | 0.281 | 3.35
7 | CCOc1ccn(-c2ccc(F)cc2)c(=O)c1C(=O)Nc1ccc(Oc2ccc(O)c(-c3cc[nH]n3)c2)c(F)c1 [Example 57, 4-Ethoxy-N-(3-fluoro-4-(4-hydroxy-3-(1H-pyrazol-3-yl)phenoxy)phenyl)-1-(4-fluorophenyl)-2-oxo-1,2-dihydropyridin-3-carboxamide] | 0.16 | 4.48
8 | Cc1ccc(C(=O)Nc2ccc(Oc3ccc(O)c(-c4cc[nH]n4)c3)c(F)c2)c(=O)n1-c1ccc(F)cc1 [Example 58, N-(3-Fluoro-4-(4-hydroxy-3-(1H-pyrazol-3-yl)phenoxy)phenyl)-1-(4-fluorophenyl)-6-methyl-2-oxo-1,2-dihydropyridin-3-carboxamide] | 0.099 | 1.45

Reference: patent publication US20240150325A1, “NOVEL COMPOUND AS PROTEIN KINASE INHIBITORS” (LG CHEM, LTD., priority 2021, published 2024)
